± gives the standard deviation of the averaged measurements.
Columns and labels:
Test in all cases: level (log10 ratio to DMSO vehicle control); higher = higher biomarker level / cell amount than vehicle control
Conditions in all cases: in DMSO
Methotrexate = compound: CN(Cc1cnc2nc(N)nc(N)c2n1)c1ccc(C(=O)N[C@@H](CCC(=O)O)C(=O)O)cc1 [Methotrexate]
Method: (§1)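 BioMAP Diversity Plus panel of 12 human primary cell co-culture systems (3C, 4H, LPS, SAg, BT, BF4T, BE3C, CASM3C, HDF3CGF, KF3CT, MyoF, Mphg). Compounds were added 1 h before stimulation and left for 24 h (MyoF 48 h; BT 72 h for soluble read-outs or 6 d for IgG). Biomarkers were read by ELISA, cytotoxicity by SRB, PBMC viability and proliferation by Alamar Blue. Each well value was divided by the mean of 8 DMSO control wells on the same plate and log10 transformed; duplicate blinded samples were tested at 4 concentrations.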

[1] = compound: O=C(Cl)C(F)(F)C(F)(F)C(F)(F)C(=O)Cl [Hexafluoroglutaryl chloride]
Method: as §1

Tetrafluorosuccinic acid = compound: O=C(O)C(F)(F)C(F)(F)C(=O)O [Tetrafluorosuccinic acid]
Method: as §1

[2] = compound: O=S(=O)(O)CCC(F)(F)C(F)(F)C(F)(F)C(F)(F)F [4:2 Fluorotelomer sulfonic acid]
Method: as §1

[3] = compound: O=S(=O)(OCC(F)(F)F)C(F)(F)C(F)(F)C(F)(F)C(F)(F)F [2,2,2-Trifluoroethyl perfluorobutanesulfonate]
Method: as §1

[4] = compound: OCCCCC(F)(F)C(F)(F)C(F)(F)C(F)(F)F [4:4 Fluorotelomer alcohol]
Method: as §1

Row | Test System | level (log10) (Methotrexate; 1500 nM) | level (log10) (Methotrexate; 4400 nM) | level (log10) (Methotrexate; 13000 nM) | level (log10) (Methotrexate; 40000 nM) | level (log10) ([1]; 6700 nM) | level (log10) ([1]; 20000 nM) | level (log10) ([1]; 60000 nM) | level (log10) (Tetrafluorosuccinic acid; 6700 nM) | level (log10) (Tetrafluorosuccinic acid; 20000 nM) | level (log10) (Tetrafluorosuccinic acid; 60000 nM) | level (log10) ([2]; 6700 nM) | level (log10) ([2]; 20000 nM) | level (log10) ([2]; 60000 nM) | level (log10) ([3]; 6700 nM) | level (log10) ([3]; 20000 nM) | level (log10) ([3]; 60000 nM) | level (log10) ([4]; 6700 nM) | level (log10) ([4]; 20000 nM) | level (log10) ([4]; 60000 nM)
1 | BE3C:EGFR | 0.023 ± 0.028 | 0.002 ± 0.013 | 0.0085 ± 0.0092 | 0.0155 ± 0.037 | 0.009 ± 0.0099 | 0.0015 ± 0.0021 | -0.0345 ± 0.0092 | -0.008 ± 0.0042 | -0.0055 ± 0.019 | 0.003 ± 0.0042 | 0.0115 ± 0.00071 | -0.009 ± 0.0014 | 0.002 ± 0.0085 | 0.006 ± 0.0028 | 0.007 | 0.0025 ± 0.00071 | 0.025 ± 0.0085 | 0.022 ± 0.038 | 0.02 ± 0.065
2 | 3C:CXCL9/MIG | 0.0075 ± 0.0092 | 0.001 ± 0.016 | -0.0015 ± 0.005 | 0.0145 ± 0.0064 | -0.0035 ± 0.005 | -0.004 ± 0.0014 | 0.002 ± 0.0085 | 0.0025 ± 0.015 | -0.0145 ± 0.012 | 0.0035 ± 0.028 | -0.0005 ± 0.005 | 0.005 ± 0.011 | 0.001 ± 0.014 | 0.0075 ± 0.043 | 0.0045 ± 0.026 | 0.0025 ± 0.022 | 0.0075 ± 0.0035 | -0.01 ± 0.0014 | 0.007 ± 0.0028
3 | BF4T:MMP-1 | 0.0195 ± 0.015 | 0.0005 ± 0.016 | -0.012 ± 0.03 | 0.0015 ± 0.011 | -0.0125 ± 0.018 | 0.003 ± 0.0028 | 0 ± 0.017 | 0.016 ± 0.02 | 0.008 ± 0.013 | 0.0295 ± 0.0035 | -0.002 ± 0.017 | -0.0115 ± 0.005 | 0.0055 ± 0.0092 | -0.0035 ± 0.015 | -0.0005 ± 0.015 | -0.0095 ± 0.0021 | 0.0075 ± 0.018 | 0.0045 ± 0.025 | 0.009 ± 0.03
4 | LPS:sPGE2 | 0.011 ± 0.025 | -0.0045 ± 0.057 | -0.0135 ± 0.067 | -0.0235 ± 0.021 | -0.011 ± 0.018 | -0.0375 ± 0.026 | -0.056 ± 0.03 | 0.0125 ± 0.032 | -0.002 ± 0.047 | 0.054 ± 0.031 | -0.035 ± 0.078 | 0.025 ± 0.064 | 0.026 ± 0.0028 | 0.049 ± 0.02 | -0.006 ± 0.038 | -0.024 ± 0.018 | 0.0035 ± 0.0092 | -0.015 ± 0.0099 | -0.015 ± 0.055
5 | BF4T:MMP-3 | 0.0045 ± 0.025 | -0.0285 ± 0.018 | -0.012 ± 0.031 | 0.015 ± 0.024 | -0.004 ± 0.011 | -0.0145 ± 0.0064 | 0.019 ± 0.0057 | 0.0285 ± 0.012 | -0.008 ± 0.028 | 0.012 ± 0.0057 | -0.031 ± 0.013 | -0.0235 ± 0.018 | 0.0295 ± 0.069 | -0.012 ± 0.0085 | -0.0055 ± 0.0035 | 0.02 ± 0.037 | 0.0075 ± 0.021 | 0.017 ± 0.041 | 0.0295 ± 0.067
6 | LPS:IL-1alpha | -0.003 ± 0.024 | 0.003 ± 0.017 | 0.005 ± 0.031 | 0.0465 ± 0.077 | -0.0955 ± 0.022 | -0.115 ± 0.015 | -0.057 ± 0.027 | -0.0215 ± 0.021 | -0.0175 ± 0.0092 | -0.0015 ± 0.013 | -0.007 ± 0.035 | -0.001 ± 0.03 | 0.0035 ± 0.018 | -0.061 ± 0.079 | -0.104 ± 0.041 | -0.172 ± 0.052 | -0.01 ± 0.04 | -0.021 ± 0.028 | 0.014 ± 0.048
7 | LPS:SRB | -0.0005 ± 0.013 | 0.001 | 0.0015 ± 0.00071 | 0.005 ± 0.011 | -0.0075 ± 0.0064 | 0.0015 ± 0.012 | 0.003 ± 0.0014 | -0.0055 ± 0.013 | -0.008 ± 0.0014 | -0.017 ± 0.0042 | -0.0085 ± 0.0021 | -0.003 ± 0.0085 | -0.011 ± 0.018 | 0.007 ± 0.0014 | -0.0035 ± 0.0092 | -0.004 ± 0.0071 | 0.02 ± 0.0057 | 0.022 ± 0.024 | 0.017 ± 0.033

Source: the supplement of paper PMC10331698
